Assay results from US12187773B2, “Modified GIP peptide analogues” (Antag Therapeutics ApS, priority 2018, dated 2025).
Where a SMILES comes first, the peptide text is derived from it. The star is where a group is joined. C16 diacid = O=C(O)CCCCCCCCCCCCCCC(=O)*

Tests used:
Type in all cases: cell-based
human GIP receptor [1] = biological target: T1, human GIP receptor (Homo sapiens, UniProt P48546); assay: cAMP agonism (CisBio cAMP Dynamic 2 HTRF assay)
T1 sequence (P48546 22-466): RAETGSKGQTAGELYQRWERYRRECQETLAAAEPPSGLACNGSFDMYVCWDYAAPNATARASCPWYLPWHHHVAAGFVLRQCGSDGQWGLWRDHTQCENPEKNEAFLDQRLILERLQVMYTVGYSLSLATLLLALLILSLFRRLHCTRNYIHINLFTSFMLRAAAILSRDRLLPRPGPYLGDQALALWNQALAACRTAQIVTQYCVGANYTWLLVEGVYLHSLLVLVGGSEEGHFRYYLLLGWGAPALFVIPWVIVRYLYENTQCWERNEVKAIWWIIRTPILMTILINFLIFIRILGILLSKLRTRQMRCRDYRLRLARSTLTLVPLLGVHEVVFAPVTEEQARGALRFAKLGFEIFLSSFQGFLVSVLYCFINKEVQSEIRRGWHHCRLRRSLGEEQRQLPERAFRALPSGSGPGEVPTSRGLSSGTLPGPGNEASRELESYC
Procedure: To test for agonistic properties at the GIP receptor, compounds were diluted and added to cells as described above and incubated for 30 min at 37° C. The resulting increase in intracellular cAMP was determined using the CisBio cAMP Dynamic 2 HTRF Assay Kit as described above.

human GIP receptor [2] = biological target: T1, human GIP receptor; assay: cAMP antagonism (CisBio cAMP Dynamic 2 HTRF assay); set-up: pCMV-Script vector; conditions: Table 1C, CisBio, HEK-293 cells
Procedure: The in vitro functional activity of compounds towards human GIP receptor can also be determined in HEK-293 cells transiently expressing the receptor. On the day of the assay, cells were resuspended in HBSS buffer (Gibco, 14025-50) supplemented with 20 mM HEPES (Gibco, 15630-106), 0,1% Pluronic F-68 (Gibco, 24040-032) and 0,1% casein (Sigma, C4765), and plated in 384-well plates at a density of 5000 cells/well. The GIP peptide analogues of the present disclosure were diluted in HBSS buffer supplemented with 20 mM HEPES, 0,1% pluronic, 0,1% casein and 500 uM IBMX. […] The resulting decrease in intracellular cAMP was quantitatively determined using the CisBio cAMP Dynamic 2 HTRF Assay Kit. The assay is based on a competition between native cAMP produced by cells and cAMP labeled with the dye d2 for binding to a cryptate labeled antibody. The specific signal (i.e. energy transfer signal) is inversely proportional to the concentration of cAMP in the sample.
The cAMP-d2 conjugate and the antibody anti-cAMP-Cryptate, both diluted in lysis buffer provided in the kit, were added to the cells according to the manufacturer's protocol. The resulting competitive assay was incubated for 60 minutes at room temperature, and the signal was detected by using a PerkinElmer Envision® instrument with excitation at 320 nm and emission at 665 nm and 620 nm. The HTRF ratio (emission at 665 nm/620 nm*10,000) is inversely proportional to the amount of cAMP present and is converted to nM cAMP per well using a cAMP standard curve. The dose-response curves were fitted using the non-linear regression analysis (four-logistic parameter equation) in GraphPad Prism, whereby pIC50 values were estimated.

human GIP receptor [3] = biological target: T1, human GIP receptor; assay: cAMP accumulation, agonism (DiscoveRx HitHunter cAMP XS assay); set-up: host or cells: COS-7 (transient, calcium phosphate; pCMV-Script vector)
Procedure: Transient transfected COS-7 cells expressing the human GIP receptor were seeded in white 96-well plates with a density of 3.5*10^4/well. The day after, the cells were washed twice with Hepes buffered saline (HBS) buffer and incubated with HBS and 1 mM 3-isobutyl-1-methylxanthine (IBMX) for 30 min at 37° C. To test for agonistic properties, ligands were added and incubated for 30 min at 37° C. In order to test for antagonistic properties, the cells were preincubated with the antagonists for 10 min prior to the addition of the agonist and subsequent incubated for 20 additional min. The HitHunter™ cAMP XS assay (DiscoveRx) was carried out according to the manufacturer's instructions.
In order to develop a GIP receptor antagonist with improved antagonistic properties, individual amino acid substitutions were conducted on GIP(3-30)NH2 and in particular at positions: 16, 18, 30 or 3, 16, 18, 30. The obtained peptides were lipidated at position 18 directly or via a linker. Both the agonistic and antagonistic profiles of the compounds were tested in cAMP accumulation experiments done in transiently transfected COS-7 cells expressing the human GIP receptor. To investigate if these mutated analogues still retained their antagonistic properties, their ability to inhibit a GIP-mediated cAMP response corresponding to 50-80% of maximum activation was examined.

[4] = HEK293, read-out: cAMP agonism, % Efficacy, Table 1C, HEK-293 cells
[5] = COS-7, read-out: cAMP agonism, Emax
[6] = HEK293, Table 1C, HEK-293 cells, read-out: cAMP agonism, % Efficacy
[7] = Table 1B, DiscoveRx, COS-7 cells, read-out: cAMP agonism, Emax

Emax (human GIP receptor [1]; [6]) [%]	Emax (human GIP receptor [3]; [7]) [%]	Compound	Emax (human GIP receptor [1]; [4]) [%]	Emax (human GIP receptor [3]; [5]) [%]	also measured
		CC[C@H](C)[C@H](NC(=O)[C@H](CO)NC(=O)[C@H](Cc1ccc(O)cc1)NC(=O)[C@H](CC(=O)O)NC(=O)[C@H](CO)NC(=O)[C@@H](NC(=O)[C@H](Cc1ccccc1)NC(=O)[C@@H](N)[C@@H](C)O)[C@@H](C)CC)C(=O)N[C@@H](C)C(=O)N[C@@H](CC(C)C)C(=O)N[C@@H](CC(=O)O)C(=O)N[C@@H](CCCNC(=N)N)C(=O)N[C@H](C(=O)N[C@@H](CCCCNC(=O)CC[C@H](NC(=O)CCCCCCCCCCCCCCC(=O)O)C(=O)O)C(=O)N[C@@H](CCC(N)=O)C(=O)N[C@@H](CCC(N)=O)C(=O)N[C@@H](CC(=O)O)C(=O)N[C@@H](Cc1ccccc1)C(=O)N[C@H](C(=O)N[C@@H](CC(N)=O)C(=O)N[C@@H](Cc1c[nH]c2ccccc12)C(=O)N[C@@H](CC(C)C)C(=O)N[C@@H](CC(C)C)C(=O)N[C@@H](C)C(=O)N[C@@H](CCC(N)=O)C(=O)N[C@@H](CCCNC(=N)N)C(N)=O)C(C)C)[C@@H](C)CC [AT233] (HELM PEPTIDE1{T.F.I.S.D.Y.S.I.A.L.D.R.I.K.Q.Q.D.F.V.N.W.L.L.A.Q.R.[am]}|PEPTIDE2{[O=C(O)CCCCCCCCCCCCCCC(=O)[*:2]].[gGlu]}$PEPTIDE1,PEPTIDE2,14:R3-2:R2$$$V2.0; N-terminus assumed)	0	28	cAMP antagonism, % inhib (human GIP receptor [2]): 70%; IC50 (human GIP receptor [2]; cAMP antagonism, nM (IC50), agonist GIP1-42 at EC50): 34.2 nM
		CC[C@H](C)[C@H](NC(=O)[C@H](CO)NC(=O)[C@H](Cc1ccc(O)cc1)NC(=O)[C@H](CC(=O)O)NC(=O)[C@H](CO)NC(=O)[C@@H](NC(=O)[C@H](Cc1ccccc1)NC(=O)[C@@H](NC(=O)CNC(=O)[C@@H]1CCCN1)[C@@H](C)O)[C@@H](C)CC)C(=O)N[C@@H](C)C(=O)N[C@@H](CCSC)C(=O)N[C@@H](CC(=O)O)C(=O)N[C@@H](CCCNC(=N)N)C(=O)N[C@H](C(=O)N[C@@H](CCCCNC(=O)COCCOCCNC(=O)CC[C@H](NC(=O)CCCCCCCCCCCCCCC(=O)O)C(=O)O)C(=O)N[C@@H](CCC(N)=O)C(=O)N[C@@H](CCC(N)=O)C(=O)N[C@@H](CC(=O)O)C(=O)N[C@@H](Cc1ccccc1)C(=O)N[C@H](C(=O)N[C@@H](CC(N)=O)C(=O)N[C@@H](Cc1c[nH]c2ccccc12)C(=O)N[C@@H](CC(C)C)C(=O)N[C@@H](CC(C)C)C(=O)N[C@@H](C)C(=O)N[C@@H](CCC(N)=O)C(=O)N[C@@H](CCCNC(=N)N)C(=O)O)C(C)C)[C@@H](C)CC [AT273] (HELM PEPTIDE1{P.G.T.F.I.S.D.Y.S.I.A.M.D.R.I.K.Q.Q.D.F.V.N.W.L.L.A.Q.R}|PEPTIDE2{[O=C(O)CCCCCCCCCCCCCCC(=O)[*:2]].[gGlu].[O=C(COCCOCCN[*:1])[*:2]]}$PEPTIDE1,PEPTIDE2,16:R3-3:R2$$$V2.0; N-terminus assumed)	0	35	
		CC[C@H](C)[C@H](NC(=O)[C@H](CO)NC(=O)[C@H](Cc1ccc(O)cc1)NC(=O)[C@H](CC(=O)O)NC(=O)[C@H](CO)NC(=O)[C@@H](NC(=O)[C@H](Cc1ccccc1)NC(=O)[C@@H](NC(=O)CNC(=O)[C@@H](N)CCC(=O)O)[C@@H](C)O)[C@@H](C)CC)C(=O)N[C@@H](C)C(=O)N[C@@H](CCSC)C(=O)N[C@@H](CC(=O)O)C(=O)N[C@@H](CCCCN)C(=O)N[C@H](C(=O)N[C@@H](CCCCNC(=O)CCCCCCCCCCCCCCC(=O)O)C(=O)N[C@@H](CCC(N)=O)C(=O)N[C@@H](CCC(N)=O)C(=O)N[C@@H](CC(=O)O)C(=O)N[C@@H](Cc1ccccc1)C(=O)N[C@H](C(=O)N[C@@H](CC(N)=O)C(=O)N[C@@H](Cc1c[nH]c2ccccc12)C(=O)N[C@@H](CC(C)C)C(=O)N[C@@H](CC(C)C)C(=O)N[C@@H](C)C(=O)N[C@@H](CCC(N)=O)C(=O)N[C@@H](CCC(=O)O)C(N)=O)C(C)C)[C@@H](C)CC [AT477] (H-EGTFISDYSIAMDKIK(C16 diacid)QQDFVNWLLAQE-NH2; N-terminus assumed)	0		cAMP agonism, Emax (human GIP receptor [3]; Table 1B, DiscoveRx, COS-7 cells): No Agonism
0	10	CC[C@H](C)[C@H](NC(=O)[C@H](CO)NC(=O)[C@H](Cc1ccc(O)cc1)NC(=O)[C@H](CCC(=O)O)NC(=O)[C@H](CO)NC(=O)[C@@H](NC(=O)[C@H](Cc1ccccc1)NC(=O)[C@@H](NC(=O)CNC(=O)[C@@H](N)CCC(=O)O)[C@@H](C)O)[C@@H](C)CC)C(=O)N[C@@H](C)C(=O)N[C@@H](CCSC)C(=O)N[C@@H](CCC(=O)O)C(=O)N[C@@H](CCCCN)C(=O)N[C@H](C(=O)N[C@@H](CCCCNC(=O)CCCCCCCCCCCCCCC(=O)O)C(=O)N[C@@H](CCC(N)=O)C(=O)N[C@@H](CCC(N)=O)C(=O)N[C@@H](CCC(=O)O)C(=O)N[C@@H](Cc1ccccc1)C(=O)N[C@H](C(=O)N[C@@H](CCC(N)=O)C(=O)N[C@@H](Cc1c[nH]c2ccccc12)C(=O)N[C@@H](CC(C)C)C(=O)N[C@@H](CC(C)C)C(=O)N[C@@H](C)C(=O)N[C@@H](CCC(N)=O)C(=O)N[C@@H](CCCCN)C(N)=O)C(C)C)[C@@H](C)CC [AT482] (H-EGTFISEYSIAMEKIK(C16 diacid)QQEFVQWLLAQK-NH2; N-terminus assumed)			
0	8	CC[C@H](C)[C@H](NC(=O)[C@H](Cc1ccccc1)NC(=O)[C@H](C)NC(=O)CNC(=O)[C@@H](N)CCC(=O)O)C(=O)N[C@@H](CO)C(=O)N[C@@H](CC(=O)O)C(=O)N[C@@H](Cc1ccc(O)cc1)C(=O)N[C@@H](C)C(=O)N[C@@H](C)C(=O)N[C@@H](C)C(=O)N[C@@H](CCSC)C(=O)N[C@@H](CC(=O)O)C(=O)N[C@@H](CCCCN)C(=O)N[C@H](C(=O)N[C@@H](CCCCNC(=O)CCCCCCCCCCCCCCC(=O)O)C(=O)N[C@@H](CCC(N)=O)C(=O)N[C@@H](CCC(N)=O)C(=O)N[C@@H](CC(=O)O)C(=O)N[C@@H](Cc1ccccc1)C(=O)N[C@H](C(=O)N[C@@H](C)C(=O)N[C@@H](Cc1c[nH]c2ccccc12)C(=O)N[C@@H](CC(C)C)C(=O)N[C@@H](CC(C)C)C(=O)N[C@@H](C)C(=O)N[C@@H](CCC(N)=O)C(=O)N[C@@H](CCCCN)C(N)=O)C(C)C)[C@@H](C)CC [AT483] (H-EGAFISDYAAAMDKIK(C16 diacid)QQDFVAWLLAQK-NH2; N-terminus assumed)			
